One experiment deals with gastric slow wave. Nature of the experiment: Azithromycin motility experiment: MiGUT recording in the stomach of anesthetized swine before and after intravenous prokinetic delivery. Type of experiment: in vivo, Yorkshire swine. The following applies: anesthetized pig. As for the experimental part:
Motivated by the capability of the MiGUT system to detect gastric slow wave activity, an experiment was designed to test if the changes or modulations in gastric motility could also be detected. The MiGUT system was again placed in the porcine stomach of an anesthetized animal and following baseline recording, azithromycin, a known prokinetic which activates motilin receptors, was intravenously delivered (1 mg/kg total dose) via ear catheter over the course of 5 minutes (FIG. 10A(i)). […] Replicates of this experiment produced similar increases in the slow wave power (FIG. 12).
All animal experiments were approved by and performed in accordance with the Committee on Animal Care at MIT. Yorkshire swine were obtained from Cummings School of Veterinary Medicine at Tufts University (Grafton, MA, USA) for in-vivo experiments. Pigs weighing approximately 60-100 kg were placed on a liquid diet for 24 hours the day before the study and were fasted overnight prior to the study. For device placement, animals were anesthetized using an intramuscular injection of midazolam 0.25 mg/kg and dexmedetomidine 0.03 mg/kg. Following sedation, animals were placed on thermal support and ophthalmic ointment was applied to both eyes. The animal was intubated and placed on isoflurane (2%) in oxygen and connected to a vital signs monitoring system. The MiGUT device was delivered orally into the stomach, using an orogastric tube and imaged using PENTAX EC-3870TLK (160 cm) to visualize the stomach with the animal in the left lateral position.
For azithromycin experiments, following ca. 1 hr of baseline recording in the anesthetized animal, 1 mg/kg animal weight of 20 mg/ml Azithromycin (Sigma-Aldrich) solution (in PBS pH adjusted with HCL, Thermofischer) was delivered via ear catheter over the course of 5 minutes. Measurements were conducted for a minimum of 45 minutes following drug delivery. Power was calculated by summing the square of the voltage measurements in a 25 minute time window. Difference in power was calculated as (Pinitial-Pfinal)/Pinitial.
Finally, to show this system can track changes in motility, Azithromycin was administered halfway during six studies. […] It was intravenously delivered at 1 mg/kg over 5 minutes through an ear catheter. […] This indicates throughout this duration of increased gastric activity (with suspected contractions), the electrodes continued to make good contact. Thus, MiGUT is shown to be able to track changes in gastric motility and maintain a reliable interface with the mucosa.

Experiment [1] has as its system gastric slow wave and all other recorded signals. Description: Animal euthanasia study: MiGUT recording during administration of a barbiturate cocktail. Type of experiment: in vivo, Yorkshire swine. The following applies: pig, euthanization during recording; 1 ml/10 lbs. An excerpt:
In an anesthetized Yorkshire pig, the device was delivered into the stomach and the electrode is shown to unroll and conform to the gastric mucosa along the greater curvature of the stomach (FIG. 7A). The reference electrode was localized near the stomach corpus (Schematic in FIG. 8). One and a half hours of recorded data in this experiment (at 62.5 samples/s) was used to generate a heat map of electrical activity vs time and channel (FIG. 7B(i)). Initial electrical activity seen in all channels following device placement (t=0 to 500 seconds) is most likely due to mechanical stimulation as a consequence of endoscopic visualization following device deployment. Channels near the pylorus (FIG. 7B(ii), channels 0-2) measured large amplitude, prolonged waveforms with periods of ca. 500 seconds with approximately 6 total cycles. […] These signals were also observed in separate experiments using the MiGUT system in different animals (N=5, Table 1).
For non-survival procedures, the animal was sedated with intramuscular injection of Telazol (tiletamine/zolazepam) 5 mg/kg and xylazine 2 mg/kg and euthanized using Fatal Plus (sodium pentobarbital), 1 ml/10 lbs. Heart rate and respiration rate are assessed via vitals monitor to ensure that the pig has been euthanized. […]

Entries after “also recorded” stand apart in the source; their conditions may differ.

`CC[C@H]1OC(=O)[C@H](C)[C@@H](O[C@H]2C[C@@](C)(OC)[C@@H](O)[C@H](C)O2)[C@H](C)[C@@H](O[C@@H]2O[C@H](C)C[C@H](N(C)C)[C@H]2O)[C@](C)(O)C[C@@H](C)CN(C)[C@H](C)[C@@H](O)[C@]1(C)O` [azithromycin]: in the experiment with gastric slow wave (1 mg/kg i.v. over 5 minutes through ear catheter, six studies), the “changes in the respiration and heart rate frequency bands” value is given as “no significant changes”. The “amplitude of the slow wave” value in the experiment with gastric slow wave (1 mg/kg i.v. over 5 minutes through ear catheter, six studies, seen in five of the recording channels) is reported as “significant increase”. The “power in the EKG or respiratory frequency windows” value in the experiment with gastric slow wave (1 mg/kg i.v. over 5 minutes, 25 minutes after vs 25 minutes prior to dosing) is reported as “no significant change in power”. For the same molecule, the “power in the slow wave frequency range” value in the experiment with gastric slow wave (1 mg/kg i.v. via ear catheter over 5 minutes, 25 minutes after vs 25 minutes prior to dosing, seen in 5 of the 8 recording channels) is given as “noticeable increase in power”.
On to `CCCC(C)C1(CC)C(=O)N=C([O-])NC1=O.[Na+]` (centres unmarked) [barbiturate cocktail, sodium pentobarbital], for which the “effect on waveforms recorded by MiGUT (slow wave and all other signals)” value in experiment [1] was “terminated; also recorded: cessation of all waveforms”.

Values taken from patent publication US20250120643A1, “INGESTIBLE AND/OR IMPLANTABLE ARTICLES FOR MONITORING ELECTRICAL SIGNALS AND RELATED METHODS” (Massachusetts Institute of Technology, priority 2023, published 2025).
